Assay results taken from patent US11980633B2, “Method for treating cancer using a combination of DNA-damaging agents and DNA-PK inhibitors” (Vertex Pharmaceuticals Incorporated, priority 2016, dated 2024).

How the values were obtained:
[1] = tested on: pKAP1 and pH2AX levels in DU4475 breast cancer cells; assay: pKAP1 and pH2AX immunoblot, Compound B-2 and doxorubicin in DU4475 breast cancer cells; format: cell-based, human; conditions: doxorubicin alone, 100 nM or 500 nM; from 4-8 h, elevated up to 24 h at 500 nM only
Protocol: (§1) Materials and Methods. The human cancer cell lines A549 (CCL-185), DU4475 (HTB-123), MDA-MB-436 (HTB-130), and MDA-MB-468 (HTB-132) were obtained from American Type Culture Collection (ATCC; Manassas, VA). A 10 mM stock solution of Compound B-1 or Compound B-2 was prepared in DMSO and stored at −20° C. Etoposide and doxorubicin were purchased from Sigma-Aldrich (St. Louis, MO).
(§2) The A549 human lung cancer cell line was purchased from ATCC and was cultured in DMEM supplemented with 10% fetal bovine serum, 1× non-essential amino acids and 1× Penicillin/Streptomycin (complete medium). Cells were maintained at a subconfluent state by passaging every 2-3 days. Human breast cancer cells lines DU4475, MDA-MB-436, and MDA-MB-468 were purchased from ATCC and cultured in DMEM supplemented with 10% fetal bovine serum, 1× Glutamax and Penicillin/Streptomycin. Cells were maintained at a subconfluent state by passaging every 2-3 days.
(§3) Compound B-1 and Compound B-2 used in these experiments were not prepared as a co-crystals.
(§4) Breast cancer cell lines grown in 24-well (Costar, catalog #3526) or 6-well (Costar, catalog #3516) tissue culture plates to 70-80% confluence were pre-incubated with 1 μM Compound B-2 or DMSO for 15 min. Doxorubicin was added to a final concentration of either 100 nM or 500 nM from a 1000× stock prepared in DMSO. Cells were then incubated for the indicated amount of time and harvested for analysis.
Cell Lysis and Western Blot Analysis. Cells treated with Compound B-1 or Compound B-2 in combination with chemotherapeutic agents were washed once with ice-cold PBS and then dissolved in 150 μL/well 2×SDS-PAGE sample buffer, transferred to microfuge tubes, and heated in a 105° C. heat block for 5 min for immunoblotting. A 15-μL aliquot of each SDS-PAGE sample was loaded onto 12-lane 4 20% Tris-Glycine gels and the gels were run at 125v constant voltage until the dye front reached the bottom (approximately 2 h). Following electrophoresis, separated proteins in the gels were transferred to a nitrocellulose membrane. Transfer was carried out for 2 h at 1.5 A constant current in a cold room using a Hoefer transfer apparatus (Model TE42 or TE62, Hoefer Inc, Holliston, MA) according to manufacturer's instructions. Following transfer, nitrocellulose membranes were incubated with blocking buffer for 1 h at room temperature. The nitrocellulose membranes were cut and the bottom halves were incubated overnight with 2 primary antibodies, anti-pH2AX (1/1000) and anti-total H2AX (1/1000). After washing, the appropriate fluorescently labeled secondary antibodies were added to the membranes and then imaged with pH2AX on the 800 (green) channel and total H2AX on the 700 (red) channel. The top halves of the membranes were probed sequentially for pKAP1 (1/1000) on the 700 (red) channel and then probed for total KAP1 (1/1000) and GAPDH (1/2500) on the 800 (green) channel. Image acquisition was conducted using an Odyssey fluorescent imaging system (Li-Cor Biosciences; Lincoln, NE).
Compound B-2 and doxorubicin combination in breast cancer cell lines in culture. To examine the effect of DNA-PK inhibition on pKAP1 and pH2AX in vitro, DU4475 breast cancer cells were pre-incubated with 1 μM Compound B-2 for 15 min, followed by addition of 100 nM or 500 nM doxorubicin. Cells were harvested at various time points following doxorubicin addition and analyzed for levels of pKAP1 and pH2AX by immunoblotting.

[2] = tested on: pKAP1 and pH2AX levels in MDA-MB-436 and MDA-MB-468 breast cancer cells; assay: pKAP1 and pH2AX immunoblot, Compound B-2 and doxorubicin in MDA-MB-436 and MDA-MB-468 cells; format: cell-based, human; conditions: 500 nM doxorubicin alone; at 4 h, remained elevated to 8 h
Protocol: as §1, §2, §3, §4
Cell Lysis and Western Blot Analysis. […]
To determine that enhancement of DNA damage by concurrent treatment of cells with Compound B-2 and doxorubicin was not specific to DU4475 cells, two additional breast cancer cell lines, MDA-MB-436 and MDA-MB-468, were also pre-incubated with 1 μM Compound B-2 for 15 min, followed by addition of 500 nM doxorubicin. Cells were harvested at various time points following doxorubicin addition and analyzed for levels of pKAP1 and pH2AX by immunoblotting.

[3] = tested on: OVCAR-3 Xenograft Tumors; assay: OVCAR-3 cell line xenograft: DOXIL given 16 hr prior to Compound B-2 CoX (PO); tumor growth; format: in vivo, nu/nu nude mice; conditions: 100 mg/kg Compound B-2 CoX qd×2 alone
Excerpt: (§5) Statistical significance was defined as P<0.05.

[4] = tested on: HCT 116 Xenograft Tumors; assay: HCT 116 cell line xenograft: DOXIL given 16 hr prior to Compound B-2 CoX (PO), 2 weekly cycles; tumor growth (studies of Tables 4-9); format: in vivo, nu/nu nude mice; conditions: Table 5 study; 100 mg/kg Compound B-2 CoX qd×4 alone
Protocol: as §5
Effect of Compound B-2 CoX Schedule in Combination with DOXIL® in HCT 116 Xenograft Tumors: The HCT 116 xenograft tumor model was selected for further examination of the effect of schedule and dose of Compound B-2 CoX in combination with DOXIL®. In this study, the effect of dosing Compound B-2 CoX qd for 2, 3, and 4 days following DOXIL® was examined.
Dose Response of DOXIL® alone and Dose Response of Compound B-2 CoX in Combination with 6 mg/kg DOXIL® in HCT 116 Xenograft Tumors: Additional investigations were conducted to determine the dose response of DOXIL® alone (1.5-6 mg/kg) in the HCT 116 xenograft tumor model. Further, a dose response of Compound B-2 CoX (25-100 mg/kg) in combination with 6 mg/kg DOXIL® was also assessed. Lastly, the efficacy of 1.5 mg/kg DOXIL® in combination with 200 mg/kg Compound B-2 CoX was also examined.
Result of reexamination of Compound B-2 CoX Dose and Schedule in Combination with DOXIL® in an HCT 116 Xenograft Mouse Model.
Examination of the Effect of Compound B-2 CoX Dose in Combination with 3 mg/kg DOXIL® in an HCT 116 Xenograft Tumor Model: A 3 mg/kg DOXIL® dose was examined in combination with a range of doses of Compound B-2 CoX (50-200 mg/kg) to identify the response of HCT 116 xenograft tumors to these combinations. […]

COc1cccc2c1C(=O)c1c(O)c3c(c(O)c1C2=O)C[C@@](O)(C(=O)CO)C[C@@H]3O[C@H]1C[C@H](N)[C@H](O)[C@H](C)O1 [Doxorubicin, reference compound]
pKAP1 and pH2AX level [1]: increased level | pKAP1 and pH2AX level [2]: increased level

[2H]c1nc(C)nc([2H])c1-c1cc(NC[C@@H](C)c2cccc3c(C(=O)NC)ccnc23)ncn1 [Compound B-2 CoX]
% T/C (Day 43) [3]: 83.2% | % T/C (Day 19) [4]: 106%
